Measurements taken from ChEMBL document CHEMBL1201862, “PubChem BioAssay data set” (2004).
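Compound exposure: 48 hours, 5 concentrations, 96-well plates. Abbreviation: GI50, concentration required for 50% inhibition of growth.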 Calls of active or inactive are those of the source. Cut-off read from the data, not from the text of the source: active = GI50 up to about 1.1 µM and inactive = higher.

Assays:
Assay in all cases: NCI tumour cell line growth inhibition, 48 h
[1] = system: ACHN
[2] = system: CAKI-1
[3] = system: CCRF-CEM
[4] = system: HCT-116
[5] = system: HT-29
[6] = system: K562
[7] = system: KM12
[8] = system: MOLT-4
[9] = system: NCI-H23
[10] = system: NCI-H522
[11] = system: OVCAR-5
[12] = system: SF-539
[13] = system: SK-MEL-5
[14] = system: SNB-19
[15] = system: XF498
[16] = system: DMS-273
[17] = system: NCI-H226
[18] = system: Hs-578T
[19] = system: MCF7
[20] = system: T47D

Measured: GI50

COc1cc2c(cc1OC)C(C(=O)O)C(c1ccccc1)N(C)C2=O (stereo unspecified)
inactive: [1] > 100 µM | [2] > 100 µM | [3] > 100 µM | [4] > 100 µM | [5] > 100 µM | [6] > 100 µM | [7] > 100 µM | [8] > 100 µM | [9] > 100 µM | [10] > 100 µM | [11] > 100 µM | [12] > 100 µM | [13] > 100 µM | [14] > 100 µM | [15] > 100 µM

O=C1C=CC(=O)C2C1Cc1ccccc1C2c1ccccc1 (stereo unspecified)
inactive: [1] 50.4 µM | [2] 59 µM | [3] 20.3 µM | [16] 58.6 µM | [4] 37.6 µM | [5] 37.8 µM | [6] 31.6 µM | [7] 51.9 µM | [8] 32.7 µM | [17] 65.5 µM | [9] 62.1 µM | [10] 20.9 µM | [11] > 100 µM | [12] 30.5 µM | [13] 64 µM | [14] > 100 µM

COc1ccc(S(=O)(=O)N/N=C\c2cc([N+](=O)[O-])cc(I)c2O)c(OC)c1OC
inactive: [1] 29.9 µM | [2] 30.1 µM | [3] 24.3 µM | [16] 32.4 µM | [5] 32.2 µM | [6] 31.6 µM | [7] 27.8 µM | [8] 25.1 µM | [17] 17.3 µM | [9] 30.5 µM | [11] 32.4 µM | [13] 21.2 µM | [14] 21.1 µM | [15] 20.7 µM

COc1cc([C@@H]2OC(=O)C3C2C(=O)O[C@H]3c2cc(OC)c(OC)c(OC)c2)cc(OC)c1OC (stereo partly specified)
inactive: [1] > 100 µM | [3] > 100 µM | [16] > 100 µM | [4] > 100 µM | [5] > 100 µM | [6] > 100 µM | [7] > 100 µM | [8] > 100 µM | [17] 38.8 µM | [9] > 100 µM | [10] > 100 µM | [12] > 100 µM | [13] > 100 µM | [14] > 100 µM | [15] 6.08 µM

Cc1ccc([N+]2=NC(c3ccc([N+](=O)[O-])cc3)=NN(c3ccccc3)C2)cc1
inactive: [1] > 100 µM | [3] 24.3 µM | [16] 70.6 µM | [4] 59.7 µM | [5] 57.9 µM | [6] 20.3 µM | [8] 21 µM | [17] > 100 µM | [9] 38.4 µM | [10] 16.4 µM | [11] > 100 µM | [13] 33.2 µM | [14] 75.3 µM | [15] > 100 µM

Cc1cnoc1/N=C1\C=C(Nc2oncc2C)C(=O)c2ccccc21
inactive: [1] > 100 µM | [2] > 100 µM | [3] > 100 µM | [16] > 100 µM | [4] > 100 µM | [5] > 100 µM | [6] 25.5 µM | [7] > 100 µM | [8] > 100 µM | [17] > 100 µM | [9] 60.5 µM | [11] > 100 µM | [12] > 100 µM | [13] 33.3 µM | [14] > 100 µM | [15] > 100 µM

O=C(/C=C/c1ccc(O)c(O)c1)c1ccc(O)cc1O [BUTEIN]
inactive: [1] 18 µM | [2] 10.5 µM | [3] 3.75 µM | [16] 10.6 µM | [4] 13 µM | [5] 17.5 µM | [18] 19.4 µM | [6] 4.27 µM | [7] 10.2 µM | [19] 3.98 µM | [8] 7.64 µM | [17] 17.3 µM | [9] 16.7 µM | [10] 2.25 µM | [11] 17.4 µM | [12] 11.2 µM | [13] 11.6 µM | [14] 18.5 µM | [20] 14.4 µM

N#CCCC[Si]12OCCN(CCO1)CCO2
inactive: [1] > 100 µM | [2] > 100 µM | [3] > 100 µM | [16] > 100 µM | [4] > 100 µM | [5] > 100 µM | [6] > 100 µM | [7] > 100 µM | [8] > 100 µM | [17] > 100 µM | [9] > 100 µM | [10] > 100 µM | [11] > 100 µM | [12] > 100 µM | [13] > 100 µM | [14] > 100 µM

O=C1c2ccc3c4ccccc4n(-c4ccccc4)c3c2C(=O)N1c1ccc(Cl)cc1
inactive: [1] > 100 µM | [2] > 100 µM | [3] > 100 µM | [16] > 100 µM | [4] > 100 µM | [5] 29 µM | [6] > 100 µM | [7] > 100 µM | [8] > 100 µM | [17] > 100 µM | [9] 8.95 µM | [10] > 100 µM | [11] > 100 µM | [12] > 100 µM | [13] > 100 µM | [14] > 100 µM
